Source: ChEMBL document CHEMBL3616451, “Design and synthesis of 11α-substituted bile acid derivatives as potential anti-tuberculosis agents” (Bioorg Med Chem Lett, 2015)
Values after ≈ are worked out from the molar mass of the structure shown. Active and inactive are the calls of the source. No cut-off for these calls is given here.

Assays:
Bacillus subtilis = assay: Antibacterial activity against Bacillus subtilis ATCC 23857 assessed as growth inhibition at 30 ug/ml relative to control; type: functional; details: for inhibition of growth at 30 µg/mL: read-out: GI
[1] = tested on: Mycobacterium tuberculosis; assay: Anti-tubercular activity against rifampicin, isoniazid, ethambutol and pyrazinamide-sensitive Mycobacterium tuberculosis H37Ra ATCC 25177 assessed as growth inhibition at 10 ug/ml by XRMA method relative to control; type: functional; details: read-out: GI
[2] = tested on: Mycobacterium tuberculosis; assay: Anti-tubercular activity against rifampicin, isoniazid, ethambutol and pyrazinamide-sensitive Mycobacterium tuberculosis H37Ra ATCC 25177 assessed as growth inhibition at 30 ug/ml by XRMA method relative to control; type: functional; details: read-out: GI
[3] = tested on: Mycobacterium tuberculosis; assay: Anti-tubercular activity against rifampicin, isoniazid, ethambutol and pyrazinamide-sensitive Mycobacterium tuberculosis H37Ra ATCC 25177 assessed as growth inhibition at 3 ug/ml by XRMA method relative to control; type: functional; details: for inhibition of growth at 3 µg/mL: read-out: GI
Pseudomonas fluorescens = assay: Antibacterial activity against Pseudomonas fluorescens ATCC 13525 assessed as growth inhibition at 30 ug/ml relative to control; type: functional; details: read-out: GI
Escherichia coli = assay: Antibacterial activity against Escherichia coli […] assessed as growth inhibition at 30 ug/ml relative to control; type: functional; details: read-out: GI
Staphylococcus aureus = assay: Antibacterial activity against Staphylococcus aureus ATCC 29213 assessed as growth inhibition at 30 ug/ml relative to control; type: functional
[4] = tested on: Mycobacterium tuberculosis; assay: Anti-tubercular activity against rifampicin, isoniazid, ethambutol and pyrazinamide-sensitive active phage of Mycobacterium tuberculosis H37Ra ATCC 25177 infected in human THP1 cells by neutral red assay; type: functional, organism-based; details: H37Ra ATCC 25177, THP-1
[5] = tested on: Mycobacterium tuberculosis; assay: Anti-tubercular activity against rifampicin, isoniazid, ethambutol and pyrazinamide-sensitive dormant phage of Mycobacterium tuberculosis H37Ra ATCC 25177 by serial dilution method; type: functional, organism-based
[6] = tested on: Mycobacterium tuberculosis; assay: Anti-tubercular activity against rifampicin, isoniazid, ethambutol and pyrazinamide-sensitive dormant phage of Mycobacterium tuberculosis H37Ra ATCC 25177 infected in human THP1 cells by neutral red assay; type: functional, organism-based; details: H37Ra ATCC 25177, THP-1
[7] = (§1) Cytotoxicity against human A549 cells after 48 hrs by MTT assay; type: cell-based; details: A549 cells
A549 = assay: as §1; type: cell-based; details: a549, 48 h
[8] = (§2) Cytotoxicity against human THP1 cells after 48 hrs by MTT assay; type: cell-based, THP-1; details: THP-1 cells
THP-1 = assay: as §2; type: cell-based; details: thp-1, 48 h
[9] = tested on: Mycobacterium tuberculosis; assay: Anti-tubercular activity against rifampicin, isoniazid, ethambutol and pyrazinamide-sensitive active phage of Mycobacterium tuberculosis H37Ra ATCC 25177 by serial dilution method; type: functional, organism-based
[10] = Cytotoxicity against human PANC1 cells after 48 hrs by MTT assay; type: cell-based, PANC-1; details: for GI50 at 48 h: PANC-1 cells; for GI90: panc-1, 48 h

Q: Which “growth inhibition (GI)” value (Bacillus subtilis) does the source give for COC(=O)CC[C@@H](C)[C@H]1CC[C@H]2[C@H]3[C@H]([C@H](n4cc(-c5ccccn5)nn4)C(=O)[C@]12C)[C@@]1(C)CC[C@@H](OC(C)=O)C[C@H]1C[C@H]3OC(C)=O here?
A: inactive

Q: What about the inhibition of growth at 10 µg/mL [1] of the same molecule?
A: 48%

Q: And the inhibition of growth at 30 µg/mL [2]?
A: 71%

Q: And the inhibition of growth at 3 µg/mL [3]?
A: 38%

Q: And the inhibition of growth at 30 µg/mL (Pseudomonas fluorescens)?
A: 47.1%

Q: And the inhibition of growth at 30 µg/mL (Escherichia coli)?
A: 32.1%

Q: And the “growth inhibition (GI)” value (Staphylococcus aureus)?
A: inactive

Q: For C[C@H](CCC(=O)O)[C@H]1CC[C@H]2[C@@H]3[C@H](O)C[C@@H]4C[C@H](O)CC[C@]4(C)[C@H]3C[C@H](O)[C@]12C [CHOLIC ACID], which inhibition of growth at 10 µg/mL [1] is on record?
A: 36%

Q: And the inhibition of growth at 30 µg/mL [2]?
A: 53%

Q: What about the “growth inhibition (GI)” value [3] of the same molecule?
A: inactive

Q: For COC(=O)CC[C@@H](C)[C@H]1CC[C@H]2[C@@H]3[C@H](OC(C)=O)C[C@@H]4C[C@H](OC(C)=O)CC[C@]4(C)[C@H]3CC(=O)[C@]12C, which inhibition of growth at 10 µg/mL [1] is on record?
A: 28%

Q: And the inhibition of growth at 30 µg/mL [2]?
A: 34%

Q: What about the inhibition of growth at 3 µg/mL [3] of the same molecule?
A: 13%

Q: Which inhibition of growth at 10 µg/mL [1] does the source give for COC(=O)CC[C@@H](C)[C@H]1CC[C@H]2[C@H]3[C@H]([C@H](NC(=O)C4CN4)C(=O)[C@]12C)[C@@]1(C)CC[C@@H](OC(C)=O)C[C@H]1C[C@H]3OC(C)=O (stereo partly drawn) here?
A: 10%

Q: What about the inhibition of growth at 30 µg/mL [2] of the same molecule?
A: 14%

Q: And the “growth inhibition (GI)” value [3]?
A: inactive

Q: Which “growth inhibition (GI)” value (Bacillus subtilis) does the source give for COC(=O)CC[C@@H](C)[C@H]1CC[C@H]2[C@H]3[C@H]([C@H](NC(=O)[C@H]4CCCN4C(=O)OC(C)(C)C)C(=O)[C@]12C)[C@@]1(C)CC[C@@H](OC(C)=O)C[C@H]1C[C@H]3OC(C)=O here?
A: inactive

Q: What about the IC50 [4] of the same molecule?
A: 1.96 µg/mL (≈ 2.73 µM)

Q: What about the IC90 [4] of the same molecule?
A: 27.3 µg/mL (≈ 38.1 µM)

Q: What about the IC50 [5] of the same molecule?
A: 2.25 µg/mL (≈ 3.14 µM)

Q: What about the IC90 [5] of the same molecule?
A: 27 µg/mL (≈ 37.7 µM)

Q: What about the IC50 [6] of the same molecule?
A: 1.32 µg/mL (≈ 1.84 µM)

Q: What about the IC90 [6] of the same molecule?
A: 23.8 µg/mL (≈ 33.3 µM)

Q: And the GI50 at 48 h [7]?
A: 52 µg/mL (≈ 72.5 µM)

Q: And the GI90 (A549)?
A: > 100 µg/mL

Q: What about the GI50 at 48 h [8] of the same molecule?
A: 46 µg/mL (≈ 64.1 µM)

Q: What about the GI90 (THP-1) of the same molecule?
A: > 100 µg/mL

Q: And the inhibition of growth at 10 µg/mL [1]?
A: 80%

Q: What about the inhibition of growth at 30 µg/mL [2] of the same molecule?
A: 94%

Q: What about the inhibition of growth at 3 µg/mL [3] of the same molecule?
A: 66%

Q: And the inhibition of growth at 30 µg/mL (Pseudomonas fluorescens)?
A: 61.5%

Q: What about the IC50 [9] of the same molecule?
A: 3.62 µg/mL (≈ 5.05 µM)

Q: What about the IC90 [9] of the same molecule?
A: 27.5 µg/mL (≈ 38.3 µM)

Q: What about the inhibition of growth at 30 µg/mL (Escherichia coli) of the same molecule?
A: 26.8%

Q: And the GI50 at 48 h [10]?
A: 15 µg/mL (≈ 20.9 µM)

Q: What about the GI90 [10] of the same molecule?
A: > 100 µg/mL

Q: What about the “growth inhibition (GI)” value (Staphylococcus aureus) of the same molecule?
A: inactive

Q: Which IC50 [4] does the source give for NNC(=O)c1ccncc1 [ISONIAZID] here?
A: 0.0024 µg/mL (≈ 0.0175 µM)

Q: And the IC90 [4]?
A: 0.075 µg/mL (≈ 0.547 µM)

Q: And the IC50 [5]?
A: 0.0023 µg/mL (≈ 0.0168 µM)

Q: And the IC90 [5]?
A: 0.075 µg/mL (≈ 0.547 µM)

Q: What about the IC50 [6] of the same molecule?
A: 0.0024 µg/mL (≈ 0.0175 µM)

Q: And the IC90 [6]?
A: 0.0078 µg/mL (≈ 0.0569 µM)

Q: What about the IC50 [9] of the same molecule?
A: 0.0019 µg/mL (≈ 0.0139 µM)

Q: What about the IC90 [9] of the same molecule?
A: 0.074 µg/mL (≈ 0.54 µM)

Q: Which results are given for COC(=O)CC[C@@H](C)[C@H]1CC[C@H]2[C@H]3[C@H]([C@H](n4nnc5ccccc54)C(=O)[C@]12C)[C@@]1(C)CC[C@@H](OC(C)=O)C[C@H]1C[C@H]3OC(C)=O?
A: inhibition of growth at 30 µg/mL (Bacillus subtilis): 8.94%; IC50 [4]: 1.11 µg/mL (≈ 1.79 µM); IC90 [4]: 8.6 µg/mL (≈ 13.8 µM); IC50 [5]: 1.27 µg/mL (≈ 2.04 µM); IC90 [5]: 7.15 µg/mL (≈ 11.5 µM); IC50 [6]: 1.65 µg/mL (≈ 2.65 µM); IC90 [6]: 8.16 µg/mL (≈ 13.1 µM); GI50 at 48 h [7]: 20 µg/mL (≈ 32.2 µM); GI90 (A549): > 100 µg/mL; GI50 at 48 h [8]: 29.9 µg/mL (≈ 48.1 µM); GI90 (THP-1): > 100 µg/mL; inhibition of growth at 10 µg/mL [1]: 94%; inhibition of growth at 30 µg/mL [2]: 96%; inhibition of growth at 3 µg/mL [3]: 76%; inhibition of growth at 30 µg/mL (Pseudomonas fluorescens): 46.8%; IC50 [9]: 1.08 µg/mL (≈ 1.74 µM); IC90 [9]: 9.79 µg/mL (≈ 15.7 µM); inhibition of growth at 30 µg/mL (Escherichia coli): 33.8%; GI50 at 48 h [10]: 50 µg/mL (≈ 80.4 µM); GI90 [10]: > 100 µg/mL; growth inhibition (GI) (Staphylococcus aureus): inactive

Q: Which results are given for COC(=O)CC[C@@H](C)[C@H]1CC[C@H]2[C@H]3[C@H]([C@H](NC(C)C)C(=O)[C@]12C)[C@@]1(C)CC[C@@H](OC(C)=O)C[C@H]1C[C@H]3OC(C)=O?
A: inhibition of growth at 30 µg/mL (Bacillus subtilis): 4.79%; inhibition of growth at 10 µg/mL [1]: 71%; inhibition of growth at 30 µg/mL [2]: 84%; inhibition of growth at 3 µg/mL [3]: 66%; inhibition of growth at 30 µg/mL (Pseudomonas fluorescens): 37.2%; inhibition of growth at 30 µg/mL (Escherichia coli): 31.9%; inhibition of growth at 30 µg/mL (Staphylococcus aureus; read-out: GI): 16.4%
